The values that follow come from US20220064167A1, “IMIDAZO-PYRAZOLE CARBOXAMIDE DERIVATIVES AS ANTICANCER AGENTS AND THE SYNTHESIS THEREOF” (AVIDIN KFT., priority 2018, published 2022).

In general, IC50 refers to the point on the concentration scale where inhibition reaches its midpoint. A higher IC50 goes with lower potency. A word on the melting point: it is the temperature, or range, at which the solid turns liquid.

Series [1] deals with human promyelocytic leukemia, HL-60 cells. The series is described as follows: resazurin viability assay, 72 h (Table 1). The format is cell-based. As to conditions: 72h incubation, 156 nM-100 μM. The source says: (§1) In our experiments three different cell lines were used. Cells were purchased from the American Type Culture Collection (ATCC, Manassas, Va., USA). The human breast adenocarcinoma cell line, MCF-7 cells were maintained in Dulbecco's Modified Eagle Medium/Nutrient Mixture F-12 (DMEM/F12) 10% fetal calf serum (FCS, Gibco) and mouse mammary carcinoma 4T1 and human promyelocytic leukemia, HL-60 cells were maintained in Roswell Park Memorial Institute 1640 medium (RPMI-1640) 10% FCS. Media were supplemented with 2 mM GlutaMAX, and 100 U/mL penicillin, 100 μg/mL streptomycin (Life Technologies, Carlsbad, Calif., USA). Cell cultures were maintained at 37° C. in a humidified incubator in an atmosphere of 5% CO2 (Sanyo, Japan).
(§2) For viability assays cells were seeded in 96 well plates (MCF7 and 4T1: 6000, HL60: 120.000 cells/well) and incubated overnight. Compounds were dissolved in dimethyl sulfoxide (DMSO). Cells were treated with an increasing concentration of compounds having the general formula (I.) (156 nM-100 μM). Cell viability was determined after 72h incubation. Resazurin reagent (Sigma-Aldrich) was dissolved in PBS (pH 7.4) at 0.15 mg/ml concentration, sterile filtered (0.22 μm, Merck Millipore) and aliquoted at −20° C. Resazurin reagent (Sigma-Aldrich) was added at a final concentration of 25 μg/ml. After 2 hours incubation at 37° C. 5% CO2 fluorescence (530 nm excitation/580 nm emission) was recorded on a multimode microplate reader (Cytofluor4000, PerSeptive Biosytems). Viability was calculated with relation to untreated control cells and blank wells containing media without cells. IC50 values (50% inhibiting concentration) were calculated by GraphPad Prism® 5 (La Jolla, Calif., USA).

The subject of series [2] is mouse mammary carcinoma 4T1. The series is described as follows: resazurin viability assay, 72 h (Table 1). The format is cell-based. As to conditions: 72h incubation, 156 nM-100 μM.
Text: as §1, §2

The test system of series [3] is human breast adenocarcinoma cell line, MCF-7. The series is described as follows: resazurin viability assay, 72 h (Table 1). The format is cell-based. As to conditions: MCF7, 72h incubation, 156 nM-100 μM.
Text: as §1, §2
Background: Alamar Blue is a resazurin reagent that responds to reducing activity.

Some results are limits rather than exact numbers.

As to `COc1ccc(NC(=O)c2cnn3c(NC(C)(C)CC(C)(C)C)c(C(C)(C)C)[nH]c23)cc1` [Example 43, 2-(Tert-butyl)-N-(4-methoxyphenyl)-3-((2,4,4-trimethylpentan-2-yl)amino)-1H-imidazo[1,2-b]pyrazole-7-carboxamide], the melting point lay within 187 to 188 °C. Besides, the IC50 in series [1] is 1.11 µM. In addition, the IC50 in series [2] worked out at 24.7 µM. The midpoint of inhibition in series [3], the IC50, lay at 17.8 µM.

In turn, `CC(C)(C)CC(C)(C)Nc1c(C(C)(C)C)[nH]c2c(C(=O)Nc3ccon3)cnn12` [Example 39, 2-(Tert-butyl)-N-(isoxazol-3-yl)-3-((2,4,4-trimethylpentan-2-yl)amino)-1H-imidazo[1,2-b]pyrazole-7-carboxamide] returned a melting point of 185 to 186 °C. It took 0.935 µM to reach half-maximal inhibition in series [1] (IC50). In addition, the IC50 in series [2] was found to be 2.85 µM. Further, the IC50 in series [3] amounted to 1.7 µM.

`CC(C)(C)CC(C)(C)Nc1c(C(C)(C)C)[nH]c2c(C(=O)Nc3ccccc3)cnn12` [Example 34, 2-(Tert-butyl)-N-phenyl-3-((2,4,4-trimethylpentan-2-yl)amino)-1H-imidazo[1,2-b]pyrazole-7-carboxamide] returned a melting point of 147 °C. Moreover, the 50% inhibitory concentration (IC50) in series [1] was found to be 0.604 µM. In addition, the IC50 in series [2] was found to be 28.5 µM. For the same compound, the IC50 in series [3] stood at 18.3 µM.

As for `CCOC(=O)c1ccc(NC(=O)c2cnn3c(NC(C)(C)CC(C)(C)C)c(C(C)(C)C)[nH]c23)cc1` [Example 55, Ethyl 4-(2-(tert-butyl)-3-((2,4,4-trimethylpentan-2-yl)amino)-1H-imidazo[1,2-b]pyrazole-7-carbox-amido)benzoate], the melting point lay within 127 to 128 °C. In series [1], the IC50 is 8.5 µM. Moreover, in series [2], the half-maximal inhibitory concentration (IC50) is greater than 50 µM. Moreover, the IC50 in series [3] is greater than 50 µM.

The compound `CC(C)(C)CC(C)(C)Nc1c(C(C)(C)C)[nH]c2c(C(=O)Nc3ccccn3)cnn12` [Example 35, 2-(Tert-butyl)-N-(pyridin-2-yl)-3-((2,4,4-trimethylpentan-2-yl)amino)-1H-imidazo[1,2-b]pyrazole-7-carboxamide] had a melting point of 144 to 145 °C. In series [1], this compound gave an IC50 of 4.38 µM. The same compound had an IC50 in series [2] of 6.91 µM. In addition, 8.35 µM corresponded to half-maximal inhibition in series [3] (IC50).

With `CC(C)(C)CC(C)(C)Nc1c(C(C)(C)C)[nH]c2c(C(=O)Nc3nccs3)cnn12` [Example 38, 2-(Tert-butyl)-N-(thiazol-2-yl)-3-((2,4,4-trimethylpentan-2-yl)amino)-1H-imidazo[1,2-b]pyrazole-7-carboxamide], the melting point lay in the range of 125 to 127 °C. Also, the IC50 in series [1] stood at 2.86 µM. In series [2], this compound yielded an IC50 of 2.41 µM. Besides, in series [3], the IC50 was 1.95 µM.

Consider `CCC(CC)(CCC#N)c1[nH]c2c(C(N)=O)cnn2c1NC(C)(C)CC(C)(C)C` [Example 27, 2-(1-Cyano-3-ethylpentan-3-yl)-3-((2,4,4-trimethylpentan-2-yl)amino)-1H-imidazo[1,2-b]pyrazole-7-carboxamide], for which the melting point fell in the range of 184 to 186 °C. For the same compound, in series [1], half-maximal inhibition (IC50) was put at 14.8 µM. In series [2], this compound displayed an IC50 of 11.6 µM. The compound further gave a 50% inhibitory concentration (IC50) in series [3] of 18 µM.

The compound `CC(C)(C)c1[nH]c2c(C(N)=O)cnn2c1Nc1ccc(F)cc1` [Example 21, 2-(Tert-butyl)-3-((4-fluorophenyl)amino)-1H-imidazo[1,2-b]pyrazole-7-carboxamide] returned a melting point of 249 to 250 °C. This compound also returned an IC50 in series [1] of 24.4 µM. Also, in series [2], the IC50 is greater than 50 µM. The same compound returned a concentration for half-maximal inhibition (IC50) in series [3] of 40.5 µM.

Regarding `Cc1ccccc1NC(=O)c1cnn2c(NC(C)(C)CC(C)(C)C)c(C(C)(C)C)[nH]c12` [Example 40, 2-(Tert-butyl)-N-(o-tolyl)-3-((2,4,4-trimethylpentan-2-yl)amino)-1H-imidazo[1,2-b]pyrazole-7-carboxamide], the melting point is 172 °C. This compound also showed an IC50 in series [1] of 2.12 µM. The IC50 in series [2] is greater than 50 µM. In series [3], 30.6 µM corresponded to half-maximal inhibition (IC50).

`CC(C)(C)CC(C)(C)Nc1c(C2CCCCC2)[nH]c2c(C(N)=O)cnn12` [Example 16, 2-Cyclohexyl-3-((2,4,4-trimethylpentan-2-yl)amino)-1H-imidazo[1,2-b]pyrazole-7-carbox-amide]: the melting point lay in the range of 190 to 192 °C. Moreover, in series [1], the IC50 is 9.35 µM. The compound further came in with an IC50 in series [2] of 12.3 µM. This compound also displayed an IC50 in series [3] of 11.1 µM.

In the case of `COc1ccc(-c2[nH]c3c(C(N)=O)cnn3c2NC(C)(C)CC(C)(C)C)cc1` [Example 7, 2-(4-Methoxyphenyl)-3-((2,4,4-trimethylpentan-2-yl)amino)-1H-imidazo[1,2-b]pyrazole-7-carboxamide], the melting point lay within 124 to 125 °C. In series [1], this compound came in with a 50% inhibitory concentration (IC50) of 19 µM. In series [2], this compound displayed an IC50 of 25.2 µM. This compound also showed an IC50 in series [3] of 18.6 µM.

As to `COc1cc(-c2[nH]c3c(C(N)=O)cnn3c2NC(C)(C)CC(C)(C)C)ccc1OC(C)=O` [Example 8, 4-(7-Carbamoyl-3-((2,4,4-trimethylpentan-2-yl)amino)-1H-imidazo[1,2-b]pyrazol-2-yl)-2-methoxyphenyl acetate], the melting point is 190 to 191 °C. Moreover, the IC50 in series [1] was determined as 26.6 µM. Besides, in series [2], 34.1 µM corresponded to half-maximal inhibition (IC50). In series [3], this compound showed an IC50 of 40.6 µM.

Take `CCc1[nH]c2c(C(N)=O)cnn2c1NC(C)(C)CC(C)(C)C` [Example 24, 2-Ethyl-3-((2,4,4-trimethylpentan-2-yl)amino)-1H-imidazo[1,2-b]pyrazole-7-carboxamide]: the melting point is 207 to 209 °C. Also, in series [1], half-maximal inhibition (IC50) was put at 27.9 µM. The same compound showed an IC50 in series [2] greater than 50 µM. In addition, in series [3], the IC50 was greater than 50 µM.

Regarding `CCCCNC(=O)c1cnn2c(NC(C)(C)CC(C)(C)C)c(C(C)(C)C)[nH]c12` [Example 29, 2-(Tert-butyl)-N-butyl-3-((2,4,4-trimethylpentan-2-yl)amino)-1H-imidazo[1,2-b]pyrazole-7-carboxamide], the melting point was in the range of 147 to 148 °C. The same compound had an IC50 in series [1] of 2.72 µM. In addition, in series [2], the IC50 was greater than 50 µM. Moreover, the IC50 in series [3] turned out to be 34.1 µM.

Consider `CC(C)(C)CC(C)(C)Nc1c(-c2ccc(F)cc2)[nH]c2c(C(N)=O)cnn12` [Example 10, 2-(4-Fluorophenyl)-3-((2,4,4-trimethylpentan-2-yl)amino)-1H-imidazo[1,2-b]pyrazole-7-carboxamide], for which the melting point was 229 to 230 °C. The compound also had an IC50 in series [1] of 17.5 µM. In series [2], this compound displayed an IC50 greater than 50 µM. In series [3], this compound came in with an IC50 greater than 50 µM.

Compound `CC(C)(C)CC(C)(C)Nc1c(-c2ccc(C(F)(F)F)cc2)[nH]c2c(C(N)=O)cnn12` [Example 12, 2-(4-(Trifluoromethyl)phenyl)-3-((2,4,4-trimethylpentan-2-yl)amino)-1H-imidazo[1,2-b]pyrazole-7-carboxamide] showed a melting point of 192 to 193 °C. This compound showed an IC50 in series [1] of 13.2 µM. Further, the IC50 in series [2] turned out to be 20.9 µM. 12.7 µM corresponded to half-maximal inhibition in series [3] (IC50).

For the compound `CNC(=O)c1cnn2c(NC(C)(C)CC(C)(C)C)c(C(C)(C)C)[nH]c12` [Example 28, 2-(Tert-butyl)-N-methyl-3-((2,4,4-trimethylpentan-2-yl)amino)-1H-imidazo[1,2-b]pyrazole-7-carboxamide], the melting point fell in the range of 173 to 174 °C. Moreover, half-maximal inhibition in series [1] (IC50) was put at 1.52 µM. For the same compound, it took 4.66 µM to reach half-maximal inhibition in series [2] (IC50). Moreover, the IC50 in series [3] was 4.46 µM.
